How the values were obtained:
Test in all cases: radiometric filter-binding kinase assay, Kinase HotSpot
Details in all cases: compound 0.5 µM; ATP 10 µM
ABL2 (human) = ABL2 (human) (UniProt P42684)
ACVRL1 (human) = ACVRL1 (human) (UniProt P37023)
CAMK1D (human) = CAMK1D (human) (UniProt Q8IU85)
CAMK4 (human) = CAMK4 (human) (UniProt Q16566)
CDK1 CCNB1 (human) = CDK1 CCNB1 (human) (UniProt P06493+P14635)
CDK9 CCNT1 (human) = CDK9 CCNT1 (human) (UniProt P50750+O60563)
CHEK1 (human) = CHEK1 (human) (UniProt O14757)
Sequence of CHEK1 (human) (O14757 whole entry, looked up): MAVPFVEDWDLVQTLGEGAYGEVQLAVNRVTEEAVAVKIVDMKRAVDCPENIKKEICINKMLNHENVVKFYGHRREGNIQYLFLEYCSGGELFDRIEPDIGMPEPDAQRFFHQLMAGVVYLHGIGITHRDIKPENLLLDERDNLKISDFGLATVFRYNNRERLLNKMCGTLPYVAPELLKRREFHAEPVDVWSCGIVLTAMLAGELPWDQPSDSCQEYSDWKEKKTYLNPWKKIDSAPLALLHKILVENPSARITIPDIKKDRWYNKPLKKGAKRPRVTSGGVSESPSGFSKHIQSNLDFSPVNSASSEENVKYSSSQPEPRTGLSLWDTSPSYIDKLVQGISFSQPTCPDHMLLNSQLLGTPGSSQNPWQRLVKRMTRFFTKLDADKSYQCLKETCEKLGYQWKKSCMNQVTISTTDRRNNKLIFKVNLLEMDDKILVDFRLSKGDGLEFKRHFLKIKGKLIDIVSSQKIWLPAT

CHEK2 (human) = CHEK2 (human) (UniProt O96017)
DAPK3 (human) = DAPK3 (human) (UniProt O43293)
DYRK1A (human) = DYRK1A (human) (UniProt Q13627)
DYRK1B (human) = DYRK1B (human) (UniProt Q9Y463)
DYRK4 (human) = DYRK4 (human) (UniProt Q9NR20)
FGR (human) = FGR (human) (UniProt P09769)
FRK (human) = FRK (human) (UniProt P42685)
HCK (human) = HCK (human) (UniProt P08631)
Sequence of HCK (human) (P08631 whole entry, looked up): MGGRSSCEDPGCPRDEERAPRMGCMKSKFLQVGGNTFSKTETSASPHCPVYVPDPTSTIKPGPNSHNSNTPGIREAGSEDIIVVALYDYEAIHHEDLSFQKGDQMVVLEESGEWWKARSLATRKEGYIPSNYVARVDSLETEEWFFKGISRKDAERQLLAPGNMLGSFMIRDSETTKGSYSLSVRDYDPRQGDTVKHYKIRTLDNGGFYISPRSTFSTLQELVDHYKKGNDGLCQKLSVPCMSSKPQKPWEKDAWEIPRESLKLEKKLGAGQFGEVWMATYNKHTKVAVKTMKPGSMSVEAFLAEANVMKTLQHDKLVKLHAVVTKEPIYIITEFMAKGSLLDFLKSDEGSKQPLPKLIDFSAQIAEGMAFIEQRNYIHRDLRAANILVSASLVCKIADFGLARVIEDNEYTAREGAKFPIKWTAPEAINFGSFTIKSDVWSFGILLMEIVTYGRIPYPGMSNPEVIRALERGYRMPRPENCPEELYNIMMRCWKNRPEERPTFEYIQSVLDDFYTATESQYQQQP

JAK3 JH1 JH2 (human) = JAK3 JH1 JH2 (human) (UniProt P52333)
KDR (human) = KDR (human) (UniProt P35968)
Sequence of KDR (human) (P35968 whole entry, looked up): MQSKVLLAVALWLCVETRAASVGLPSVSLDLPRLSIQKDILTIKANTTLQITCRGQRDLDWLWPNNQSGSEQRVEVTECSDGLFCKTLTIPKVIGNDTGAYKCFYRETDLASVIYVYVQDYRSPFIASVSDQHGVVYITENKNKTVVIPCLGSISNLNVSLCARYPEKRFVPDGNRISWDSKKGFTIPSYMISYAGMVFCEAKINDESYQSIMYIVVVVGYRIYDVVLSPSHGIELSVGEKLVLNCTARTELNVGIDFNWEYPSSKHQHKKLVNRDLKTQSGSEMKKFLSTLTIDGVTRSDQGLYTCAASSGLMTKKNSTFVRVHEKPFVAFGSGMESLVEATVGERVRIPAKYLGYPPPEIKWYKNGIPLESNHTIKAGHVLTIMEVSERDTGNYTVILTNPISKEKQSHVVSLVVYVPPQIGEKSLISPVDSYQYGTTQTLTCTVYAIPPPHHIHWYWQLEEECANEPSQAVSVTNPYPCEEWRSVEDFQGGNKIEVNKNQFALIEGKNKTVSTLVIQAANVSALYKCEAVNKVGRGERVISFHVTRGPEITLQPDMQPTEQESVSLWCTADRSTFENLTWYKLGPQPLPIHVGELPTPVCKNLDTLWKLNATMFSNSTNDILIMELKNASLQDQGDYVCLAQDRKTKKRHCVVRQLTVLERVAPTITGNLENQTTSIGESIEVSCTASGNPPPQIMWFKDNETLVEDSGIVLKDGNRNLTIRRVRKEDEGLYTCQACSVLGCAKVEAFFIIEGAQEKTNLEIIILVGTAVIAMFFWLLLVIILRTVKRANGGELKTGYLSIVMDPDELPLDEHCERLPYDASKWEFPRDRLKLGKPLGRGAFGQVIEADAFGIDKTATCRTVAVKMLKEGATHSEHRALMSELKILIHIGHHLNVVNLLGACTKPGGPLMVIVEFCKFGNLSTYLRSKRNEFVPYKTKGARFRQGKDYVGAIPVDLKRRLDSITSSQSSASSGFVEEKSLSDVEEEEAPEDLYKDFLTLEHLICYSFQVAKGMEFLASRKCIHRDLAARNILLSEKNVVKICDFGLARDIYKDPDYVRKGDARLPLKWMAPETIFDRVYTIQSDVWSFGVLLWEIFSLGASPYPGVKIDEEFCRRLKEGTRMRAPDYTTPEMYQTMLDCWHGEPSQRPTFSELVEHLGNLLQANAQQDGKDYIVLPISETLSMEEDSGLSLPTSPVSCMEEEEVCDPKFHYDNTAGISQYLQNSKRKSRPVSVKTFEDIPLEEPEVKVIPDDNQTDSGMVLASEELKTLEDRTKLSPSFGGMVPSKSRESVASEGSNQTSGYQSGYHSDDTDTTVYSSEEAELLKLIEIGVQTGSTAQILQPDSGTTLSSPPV

LRRK2 (human) = LRRK2 (human) (UniProt Q5S007)
MAP2K2 (human) = MAP2K2 (human) (UniProt P36507)
MAP3K11 (human) = MAP3K11 (human) (UniProt Q16584)
MAP3K3 (human) = MAP3K3 (human) (UniProt Q99759)
MAP4K2 (human) = MAP4K2 (human) (UniProt Q12851)
MARK1 (human) = MARK1 (human) (UniProt Q9P0L2)
MARK2 (human) = MARK2 (human) (UniProt Q7KZI7)
Sequence of MARK2 (human) (Q7KZI7 whole entry, looked up): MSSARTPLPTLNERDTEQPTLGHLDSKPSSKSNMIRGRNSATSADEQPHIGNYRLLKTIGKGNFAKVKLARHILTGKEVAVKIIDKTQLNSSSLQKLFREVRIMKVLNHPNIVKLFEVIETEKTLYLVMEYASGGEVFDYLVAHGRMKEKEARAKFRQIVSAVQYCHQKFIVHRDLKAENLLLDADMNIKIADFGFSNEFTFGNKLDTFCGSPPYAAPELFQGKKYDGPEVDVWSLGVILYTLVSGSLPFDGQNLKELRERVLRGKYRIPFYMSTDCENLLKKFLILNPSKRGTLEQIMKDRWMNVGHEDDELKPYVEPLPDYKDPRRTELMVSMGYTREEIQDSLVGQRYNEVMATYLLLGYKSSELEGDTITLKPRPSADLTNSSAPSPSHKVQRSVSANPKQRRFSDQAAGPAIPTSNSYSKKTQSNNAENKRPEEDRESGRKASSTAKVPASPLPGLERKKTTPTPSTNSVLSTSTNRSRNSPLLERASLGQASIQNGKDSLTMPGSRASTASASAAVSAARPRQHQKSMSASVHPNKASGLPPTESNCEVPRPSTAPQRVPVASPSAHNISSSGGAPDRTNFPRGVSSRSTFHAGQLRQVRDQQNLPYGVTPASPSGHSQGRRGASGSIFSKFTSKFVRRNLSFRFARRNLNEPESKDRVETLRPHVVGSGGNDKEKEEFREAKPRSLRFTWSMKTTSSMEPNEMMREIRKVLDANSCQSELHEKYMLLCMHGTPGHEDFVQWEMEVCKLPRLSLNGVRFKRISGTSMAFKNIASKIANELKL

MINK1 (human) = MINK1 (human) (UniProt Q8N4C8)
NUAK1 (human) = NUAK1 (human) (UniProt O60285)
OXSR1 (human) = OXSR1 (human) (UniProt O95747)
PAK3 (human) = PAK3 (human) (UniProt O75914)
PAK4 (human) = PAK4 (human) (UniProt O96013)
PDGFRB (human) = PDGFRB (human) (UniProt P09619)
PDPK1 (human) = PDPK1 (human) (UniProt O15530)
Sequence of PDPK1 (human) (O15530 whole entry, looked up): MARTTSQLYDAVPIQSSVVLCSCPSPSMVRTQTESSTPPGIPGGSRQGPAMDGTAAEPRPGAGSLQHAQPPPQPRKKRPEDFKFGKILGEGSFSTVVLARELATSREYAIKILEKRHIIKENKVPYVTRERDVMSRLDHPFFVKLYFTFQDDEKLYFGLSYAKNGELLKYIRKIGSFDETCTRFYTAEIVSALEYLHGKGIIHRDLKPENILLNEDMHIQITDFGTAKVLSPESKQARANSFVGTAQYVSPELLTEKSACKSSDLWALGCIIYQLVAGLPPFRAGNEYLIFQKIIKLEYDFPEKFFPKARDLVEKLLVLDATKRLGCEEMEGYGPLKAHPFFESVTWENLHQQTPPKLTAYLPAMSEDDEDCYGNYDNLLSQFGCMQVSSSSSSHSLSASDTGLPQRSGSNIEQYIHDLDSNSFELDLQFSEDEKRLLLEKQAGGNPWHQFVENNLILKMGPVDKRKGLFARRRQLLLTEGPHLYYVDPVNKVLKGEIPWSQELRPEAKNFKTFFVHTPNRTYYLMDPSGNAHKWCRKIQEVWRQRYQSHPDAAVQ

PHKG2 (human) = PHKG2 (human) (UniProt P15735)
PKN2 (human) = PKN2 (human) (UniProt Q16513)
Sequence of PKN2 (human) (Q16513 whole entry, looked up): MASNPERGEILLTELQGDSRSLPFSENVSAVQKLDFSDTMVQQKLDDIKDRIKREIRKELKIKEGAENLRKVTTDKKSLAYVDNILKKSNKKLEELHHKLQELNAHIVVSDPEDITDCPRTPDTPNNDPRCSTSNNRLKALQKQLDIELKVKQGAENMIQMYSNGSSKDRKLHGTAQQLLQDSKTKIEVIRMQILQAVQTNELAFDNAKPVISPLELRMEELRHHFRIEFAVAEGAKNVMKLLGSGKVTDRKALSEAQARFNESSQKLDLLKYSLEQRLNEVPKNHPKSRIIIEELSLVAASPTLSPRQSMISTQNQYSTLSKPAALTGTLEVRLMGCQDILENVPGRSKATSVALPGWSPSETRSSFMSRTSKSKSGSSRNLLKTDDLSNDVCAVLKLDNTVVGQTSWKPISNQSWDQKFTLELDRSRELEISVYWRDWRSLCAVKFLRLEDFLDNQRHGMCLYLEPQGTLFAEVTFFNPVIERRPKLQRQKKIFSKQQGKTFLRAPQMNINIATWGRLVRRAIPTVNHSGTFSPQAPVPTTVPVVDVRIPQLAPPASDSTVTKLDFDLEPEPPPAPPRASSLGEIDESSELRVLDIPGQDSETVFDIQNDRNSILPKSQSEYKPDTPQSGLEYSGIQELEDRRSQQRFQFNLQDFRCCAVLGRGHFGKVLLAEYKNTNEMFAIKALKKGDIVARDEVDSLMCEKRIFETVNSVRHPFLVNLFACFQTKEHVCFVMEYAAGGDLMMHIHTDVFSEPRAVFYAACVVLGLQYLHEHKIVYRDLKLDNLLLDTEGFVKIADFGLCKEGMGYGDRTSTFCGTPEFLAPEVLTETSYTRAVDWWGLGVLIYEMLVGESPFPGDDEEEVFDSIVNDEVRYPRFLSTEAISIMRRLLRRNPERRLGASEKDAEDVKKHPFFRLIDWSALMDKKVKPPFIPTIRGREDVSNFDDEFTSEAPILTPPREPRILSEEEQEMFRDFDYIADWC

PRKCA (human) = PRKCA (human) (UniProt P17252)
PRKCI (human) = PRKCI (human) (UniProt P41743)
PRKCZ (human) = PRKCZ (human) (UniProt Q05513)
PTK6 (human) = PTK6 (human) (UniProt Q13882)
STK11 (human) = STK11 (human) (UniProt Q15831)
TEK (human) = TEK (human) (UniProt Q02763)
TTK (human) = TTK (human) (UniProt P33981)
VRK1 (human) = VRK1 (human) (UniProt Q99986)
CSNK2A2 (human) = CSNK2A2 (human) (UniProt P19784)

Sequence of CAMK1D (human) (Q8IU85 whole entry, looked up): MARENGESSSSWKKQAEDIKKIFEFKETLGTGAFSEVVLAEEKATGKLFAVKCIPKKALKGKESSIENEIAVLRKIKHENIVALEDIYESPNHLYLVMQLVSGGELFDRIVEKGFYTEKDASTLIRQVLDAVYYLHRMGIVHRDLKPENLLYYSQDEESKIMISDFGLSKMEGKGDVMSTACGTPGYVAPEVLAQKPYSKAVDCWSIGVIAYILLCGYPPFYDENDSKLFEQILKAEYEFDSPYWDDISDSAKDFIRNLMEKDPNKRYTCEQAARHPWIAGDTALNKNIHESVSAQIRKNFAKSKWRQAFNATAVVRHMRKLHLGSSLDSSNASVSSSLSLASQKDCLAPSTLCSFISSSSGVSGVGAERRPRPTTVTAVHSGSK

In the case of CCn1cnc2c(Nc3cccc(Cl)c3)nc(N[C@@H]3CCCC[C@@H]3N)nc21, the residual activity (ABL2 (human)) is reported as 65.7%, the residual activity (ACVRL1 (human)) is reported as 99.9% and the residual activity (CAMK1D (human)) is reported as 96.7%. For the same molecule, the residual activity (CAMK4 (human)) was 103%, the residual activity (CDK1 CCNB1 (human)) was 16.4% and the residual activity (CDK9 CCNT1 (human)) was 53.7%. The residual activity (CHEK1 (human)) was 85.8%, the residual activity (CHEK2 (human)) was 79.9% and the residual activity (DAPK3 (human)) was 105%. It also gave a residual activity (DYRK1A (human)) of 100%, a residual activity (DYRK1B (human)) of 94.4% and a residual activity (DYRK4 (human)) of 95.1%. For the same molecule, the residual activity (FGR (human)) was 45.8%, the residual activity (FRK (human)) was 87.7% and the residual activity (HCK (human)) was 69.6%. It also gave a residual activity (JAK3 JH1 JH2 (human)) of 99.6%, a residual activity (KDR (human)) of 96.5% and a residual activity (LRRK2 (human)) of 70%. The residual activity (MAP2K2 (human)) was 107%, the residual activity (MAP3K11 (human)) was 77.6% and the residual activity (MAP3K3 (human)) was 103%. It also gave a residual activity (MAP4K2 (human)) of 87.4%, a residual activity (MARK1 (human)) of 93.1% and a residual activity (MARK2 (human)) of 90.1%. It also gave a residual activity (MINK1 (human)) of 95.2%, a residual activity (NUAK1 (human)) of 52.4% and a residual activity (OXSR1 (human)) of 92.3%. The residual activity (PAK3 (human)) was 91.9%, the residual activity (PAK4 (human)) was 84.5% and the residual activity (PDGFRB (human)) was 99.6%. It also gave a residual activity (PDPK1 (human)) of 94.8%, a residual activity (PHKG2 (human)) of 85.6% and a residual activity (PKN2 (human)) of 90.3%. It also gave a residual activity (PRKCA (human)) of 68.2%, a residual activity (PRKCI (human)) of 99.7% and a residual activity (PRKCZ (human)) of 106%. The residual activity (PTK6 (human)) was 82.1%, the residual activity (STK11 (human)) was 78% and the residual activity (TEK (human)) was 99.9%. It also gave a residual activity (TTK (human)) of 99.7% and a residual activity (VRK1 (human)) of 103%.

In the case of O=C1NC(=O)C(c2cn(CCCO)c3ncccc23)=C1c1cnccn1, the residual activity (ABL2 (human)) is reported as 83.7%, the residual activity (ACVRL1 (human)) is reported as 105% and the residual activity (CAMK1D (human)) is reported as 95.1%. For the same molecule, the residual activity (CAMK4 (human)) was 95.6%, the residual activity (CDK1 CCNB1 (human)) was 81.1% and the residual activity (CDK9 CCNT1 (human)) was 88.3%. For the same molecule, the residual activity (CHEK1 (human)) was 141%, the residual activity (CHEK2 (human)) was 97.7% and the residual activity (DAPK3 (human)) was 80.2%. It also gave a residual activity (DYRK1A (human)) of 108%, a residual activity (DYRK1B (human)) of 93.2% and a residual activity (DYRK4 (human)) of 98.4%. It also gave a residual activity (FGR (human)) of 108%, a residual activity (FRK (human)) of 88.3% and a residual activity (HCK (human)) of 63.4%. It also gave a residual activity (JAK3 JH1 JH2 (human)) of 134%, a residual activity (KDR (human)) of 82.1% and a residual activity (LRRK2 (human)) of 90%. It also gave a residual activity (MAP2K2 (human)) of 90.3%, a residual activity (MAP3K11 (human)) of 80.8% and a residual activity (MAP3K3 (human)) of 88.3%. The residual activity (MAP4K2 (human)) was 67.4%, the residual activity (MARK1 (human)) was 95% and the residual activity (MARK2 (human)) was 97.5%. It also gave a residual activity (MINK1 (human)) of 84.8%, a residual activity (NUAK1 (human)) of 59.4% and a residual activity (OXSR1 (human)) of 101%. For the same molecule, the residual activity (PAK3 (human)) was 92.9%, the residual activity (PAK4 (human)) was 111% and the residual activity (PDGFRB (human)) was 102%. For the same molecule, the residual activity (PDPK1 (human)) was 92.2%, the residual activity (PHKG2 (human)) was 102% and the residual activity (PKN2 (human)) was 83.3%. It also gave a residual activity (PRKCA (human)) of 91.1%, a residual activity (PRKCI (human)) of 87% and a residual activity (PRKCZ (human)) of 88.5%. For the same molecule, the residual activity (PTK6 (human)) was 101%, the residual activity (STK11 (human)) was 83.1% and the residual activity (TEK (human)) was 103%. For the same molecule, the residual activity (TTK (human)) was 94.5% and the residual activity (VRK1 (human)) was 86.4%.

In the case of CC(=O)O/N=C1\C(=C2\C(=O)Nc3cc(Br)ccc32)Nc2ccccc21, the residual activity (ABL2 (human)) is reported as 26.4%, the residual activity (ACVRL1 (human)) is reported as 107% and the residual activity (CAMK1D (human)) is reported as 79.1%. It also gave a residual activity (CAMK4 (human)) of 86.1%, a residual activity (CDK1 CCNB1 (human)) of 79.3% and a residual activity (CDK9 CCNT1 (human)) of 91.5%. The residual activity (CHEK1 (human)) was 100%, the residual activity (CHEK2 (human)) was 75.8% and the residual activity (DAPK3 (human)) was 82.2%. It also gave a residual activity (DYRK1A (human)) of 111%, a residual activity (DYRK1B (human)) of 96% and a residual activity (DYRK4 (human)) of 96.7%. The residual activity (FGR (human)) was 14.8%, the residual activity (FRK (human)) was 51.2% and the residual activity (HCK (human)) was 43.1%. For the same molecule, the residual activity (JAK3 JH1 JH2 (human)) was 107%, the residual activity (KDR (human)) was 74.2% and the residual activity (LRRK2 (human)) was 87.6%. The residual activity (MAP2K2 (human)) was 83.1%, the residual activity (MAP3K11 (human)) was 42.5% and the residual activity (MAP3K3 (human)) was 97.4%. It also gave a residual activity (MAP4K2 (human)) of 44%, a residual activity (MARK1 (human)) of 76% and a residual activity (MARK2 (human)) of 74.9%. For the same molecule, the residual activity (MINK1 (human)) was 76.1%, the residual activity (NUAK1 (human)) was 49.4% and the residual activity (OXSR1 (human)) was 112%. For the same molecule, the residual activity (PAK3 (human)) was 99.1%, the residual activity (PAK4 (human)) was 92.7% and the residual activity (PDGFRB (human)) was 51.6%. It also gave a residual activity (PDPK1 (human)) of 88.2%, a residual activity (PHKG2 (human)) of 96.6% and a residual activity (PKN2 (human)) of 85.4%. It also gave a residual activity (PRKCA (human)) of 105%, a residual activity (PRKCI (human)) of 74.3% and a residual activity (PRKCZ (human)) of 92.2%. It also gave a residual activity (PTK6 (human)) of 91.2%, a residual activity (STK11 (human)) of 73.6% and a residual activity (TEK (human)) of 106%. It also gave a residual activity (TTK (human)) of 93.9% and a residual activity (VRK1 (human)) of 80.7%.

For COc1cc2ncnc(N3CCN(C(=O)Nc4ccc(Oc5ccccc5)cc4)CC3)c2cc1OC, the residual activity (ABL2 (human)) was 92.9%, the residual activity (ACVRL1 (human)) was 93% and the residual activity (CAMK1D (human)) was 104%. It also gave a residual activity (CAMK4 (human)) of 102%, a residual activity (CDK1 CCNB1 (human)) of 105% and a residual activity (CDK9 CCNT1 (human)) of 97.3%. It also gave a residual activity (CHEK1 (human)) of 99.4%, a residual activity (CHEK2 (human)) of 102% and a residual activity (CSNK2A2 (human)) of 61.9%. For the same molecule, the residual activity (DAPK3 (human)) was 101%, the residual activity (DYRK1A (human)) was 97.9% and the residual activity (DYRK1B (human)) was 93.5%. For the same molecule, the residual activity (DYRK4 (human)) was 79.8%, the residual activity (FGR (human)) was 98.8% and the residual activity (FRK (human)) was 90.2%. The residual activity (HCK (human)) was 91.7%, the residual activity (JAK3 JH1 JH2 (human)) was 107% and the residual activity (KDR (human)) was 82.7%. For the same molecule, the residual activity (LRRK2 (human)) was 98.3%, the residual activity (MAP2K2 (human)) was 99.3% and the residual activity (MAP3K11 (human)) was 97%. For the same molecule, the residual activity (MAP3K3 (human)) was 83.7%, the residual activity (MAP4K2 (human)) was 94.7% and the residual activity (MARK1 (human)) was 99.1%. It also gave a residual activity (MARK2 (human)) of 97.4%, a residual activity (MINK1 (human)) of 99.6% and a residual activity (NUAK1 (human)) of 88.8%. For the same molecule, the residual activity (OXSR1 (human)) was 119%, the residual activity (PAK3 (human)) was 98.1% and the residual activity (PAK4 (human)) was 101%. It also gave a residual activity (PDPK1 (human)) of 92.3%, a residual activity (PHKG2 (human)) of 128% and a residual activity (PKN2 (human)) of 99.1%. The residual activity (PRKCA (human)) was 98%, the residual activity (PRKCI (human)) was 105% and the residual activity (PRKCZ (human)) was 96%. The residual activity (PTK6 (human)) was 95.2%, the residual activity (STK11 (human)) was 105% and the residual activity (TEK (human)) was 92.6%. The residual activity (TTK (human)) was 98.3% and the residual activity (VRK1 (human)) was 77.4%.
